{"source": "patent US5679645A", "about": "“Sialic acid powder and process for the preparation thereof” (Snow Brand Milk Products Co., Ltd., priority 1993, dated 1997)", "key": {"[1]": {"assay": "Time for complete dissolution in methanol suspension with Dowex 50", "format": "physicochemical", "experimental": "A suspension of 10 g of Dowex 50 (trademark, manufactured by Dow Chemical; H+-type, 100-200 mesh, washed with hot methanol) in 100 ml of methanol was prepared. 10 g of Amorphous Powder 1--1, Needles 1--1, or Prisms 1--1 prepared in Example 1 was each charged to the suspension at 25° C. while vigorously stirring. While continuing the stirring at 25° C., the mixture was sampled from time to time to measure the time required for the sialic acids to be dissolved completely to form a clear solution, the degree of reaction, and the final reaction yield. The reaction yield was calculated by HPLC (HPX-87H column, trademark, manufactured by Bio Rad Co.)."}, "[2]": {"assay": "Water content of sialic acid powders (Table 1, comparison of properties)", "format": "physicochemical", "conditions": "for Water content: Table 1"}, "[3]": {"assay": "Relationship between freezing rate and properties of the freeze-dried powder (degree of crystallization, water content; Table 2)", "format": "physicochemical", "conditions": "40% by weight aqueous solution", "experimental": "Relationship between the freezing rate of a sialic acid aqueous solution and properties of the ultimate product was studied. 40% by weight aqueous solution of sialic acids was used and frozen for different periods of time using liquid nitrogen, a cooling shelf, and a freezer, and freeze-dried for 4 days. The degree of crystallization and the water content were measured."}, "[4]": {"assay": "Solubility in water and organic solvents (statement)"}, "[5]": {"conditions": "10 g in 100 ml methanol with 10 g Dowex 50 (H+), 25° C., stirring"}, "[6]": {"conditions": "time for freezing 1 minute or shorter"}, "[7]": {"conditions": "time for freezing 5 minute or shorter"}, "[8]": {"conditions": "time for freezing 10 minute or shorter"}, "[9]": {"conditions": "time for freezing 30 minute or shorter"}, "[10]": {"conditions": "time for freezing 1 hour or shorter"}, "[11]": {"conditions": "time for freezing 3 hours or shorter"}}}
{"smiles": "CC(=O)N[C@H]1[C@H]([C@H](O)[C@H](O)CO)OC(O)(C(=O)O)C[C@@H]1O", "note": "(some centres unmarked) [Amorphous Powder 1-1, sialic acid]", "values": [{"measurement": "Time required for complete dissolution", "setting": "[1]; [5]", "value": 6, "unit": "min"}, {"measurement": "Time required for complete dissolution (in words)", "setting": "[1]; [5]", "value": "dissolved fastest"}, {"measurement": "Water content", "setting": "[2]", "value": 2.2, "unit": "%"}]}
{"smiles": "CC(=O)N[C@H]1[C@H]([C@H](O)[C@H](O)CO)OC(O)(C(=O)O)C[C@@H]1O", "note": "(some centres unmarked) [Needles 1-1, sialic acid]", "values": [{"measurement": "Time required for complete dissolution", "setting": "[1]; [5]", "value": 27, "unit": "min"}, {"measurement": "Water content", "setting": "[2]", "value": 2.1, "unit": "%"}]}
{"smiles": "CC(=O)N[C@H]1[C@H]([C@H](O)[C@H](O)CO)OC(O)(C(=O)O)C[C@@H]1O", "note": "(some centres unmarked) [Prisms 1-1, sialic acid]", "values": [{"measurement": "Complete dissolution after 5 hours (in words)", "setting": "[1]; methanol with Dowex 50, 25° C., 5 hours", "value": "did not completely dissolved"}, {"measurement": "Water content", "setting": "[2]", "value": 10.9, "unit": "%"}, {"measurement": "Crystal water contained in the powder", "setting": "[2]; stated in discussion of Table 3", "value": "about 10%"}]}
{"smiles": "CC(=O)N[C@H]1[C@H]([C@H](O)[C@H](O)CO)OC(O)(C(=O)O)C[C@@H]1O", "note": "(some centres unmarked) [freeze-dried powder, sialic acid]", "values": [{"measurement": "Crystallization degree", "setting": "[3]; [6]", "value": 0, "unit": "%"}, {"measurement": "Water content", "setting": "[3]; [6]", "value": "1.1-1.7%"}, {"measurement": "Crystallization degree", "setting": "[3]; [7]", "value": "> 0.1", "unit": "%"}, {"measurement": "Water content", "setting": "[3]; [7]", "value": "1.2-1.9%"}, {"measurement": "Crystallization degree", "setting": "[3]; [8]", "value": "0.2-0.4%"}, {"measurement": "Water content", "setting": "[3]; [8]", "value": "1.4-2.1%"}, {"measurement": "Crystallization degree", "setting": "[3]; [9]", "value": "1.8-2.3%"}, {"measurement": "Water content", "setting": "[3]; [9]", "value": "2.4-3.6%"}, {"measurement": "Crystallization degree", "setting": "[3]; [10]", "value": "9.8-15.1%"}, {"measurement": "Water content", "setting": "[3]; [10]", "value": "3.9-4.8%"}, {"measurement": "Crystallization degree", "setting": "[3]; [11]", "value": "26-35%"}, {"measurement": "Water content", "setting": "[3]; [11]", "value": "5.1-6.2%"}]}
{"smiles": "CC(=O)N[C@H]1[C@H]([C@H](O)[C@H](O)CO)OC(O)(C(=O)O)C[C@@H]1O", "note": "(some centres unmarked) [sialic acid]", "values": [{"measurement": "Solubility in organic solvents and reactivity (in words)", "setting": "[4]; compared with needles", "value": "superiority to such sialic acid needles, in terms of solubility in organic solvents and the reactivity"}, {"measurement": "Solubility in water (in words)", "setting": "[4]; compared with needles and prisms", "value": "more excellent in its solubility in water than both the needles and the prisms"}, {"measurement": "Water content (in words)", "setting": "[2]; compared with needles", "value": "very close to those of needles"}]}
